Measured values taken from patent publication US11419806B2, “Prebiotic oral care methods using a saccharide” (Colgate-Palmolive Company, priority 2013, dated 2022).

Experiments:
Assay in all cases: Twenty-four hour optical density growth in BHI
Type in all cases: cell-based
Streptococcus mutans = settings: S mutans
Fusobacterium nucleatum = settings: F nucleatum
Procedure, shortened: (§1)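 Overnight anaerobic cultures at 37° C were diluted in BHI to 1×10^7 CFU/ml, then mixed with each saccharide (myo-inositol, D-lactitol, D-turanose, N-acetyl-D-mannosamine; final 5–25 μmol/ml). After 24 h anaerobic incubation, optical density at 630 nm was compared with the start reading and with an unsupplemented control.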

Actinomyces naeslundii = settings: A naeslundii
Procedure, shortened: as §1

Actinomyces viscosus = settings: A viscosus
Procedure, shortened: as §1

Streptococcus sobrinus = settings: S sobrinus
Streptococcus salivarius = settings: S salivarius
Prevotella intermedia = settings: P intermedia
Procedure, shortened: as §1

Tannerella forsythia = settings: T forsythia
Procedure, shortened: as §1

Streptococcus gordonii = settings: S gordonii
Streptococcus mitis = settings: S mitis
Veillonella parvula = settings: V parvula
Procedure, shortened: as §1

Capnocytophaga sputigena = settings: C sputigena
Procedure, shortened: as §1

[1] = tested on: Aggregatibacter actinomycetemcomitans; settings: A actinomycetemcomitans
Porphyromonas gingivalis = settings: P gingivalis
Procedure, shortened: as §1

S. sanguinis = tested on: S. sanguinis

Q: CC(=O)N[C@H](C=O)[C@@H](O)[C@H](O)[C@H](O)CO [N-acetyl-D-mannosamine, 2-acetamido-2-deoxy-D-mannose] was tested. Which “extent of growth: maximal OD630 over 24 hr divided by maximal OD of control (control = 1)” value (Streptococcus mutans; 5 μmol/ml) did it give?
A: Its value is 0.8669.

Q: What about the “extent of growth: maximal OD630 over 24 hr divided by maximal OD of control (control = 1)” value (Streptococcus mutans; 10 μmol/ml) of the same molecule?
A: The value was 0.8670.

Q: What about the “extent of growth: maximal OD630 over 24 hr divided by maximal OD of control (control = 1)” value (Streptococcus mutans; 20 μmol/ml) of the same molecule?
A: Its value is 0.8300.

Q: What about the “extent of growth: maximal OD630 over 24 hr divided by maximal OD of control (control = 1)” value (Streptococcus mutans; 25 μmol/ml) of the same molecule?
A: The value was 0.8283.

Q: What about the “extent of growth: maximal OD630 over 24 hr divided by maximal OD of control (control = 1)” value (Fusobacterium nucleatum; 5 μmol/ml) of the same molecule?
A: Its value is 0.9065.

Q: And the “extent of growth: maximal OD630 over 24 hr divided by maximal OD of control (control = 1)” value (Fusobacterium nucleatum; 10 μmol/ml)?
A: The value was 0.8477.

Q: What about the “extent of growth: maximal OD630 over 24 hr divided by maximal OD of control (control = 1)” value (Fusobacterium nucleatum; 20 μmol/ml) of the same molecule?
A: Its value is 0.9564.

Q: And the “extent of growth: maximal OD630 over 24 hr divided by maximal OD of control (control = 1)” value (Fusobacterium nucleatum; 25 μmol/ml)?
A: The value was 0.9193.

Q: What about the “extent of growth: maximal OD630 over 24 hr divided by maximal OD of control (control = 1)” value (Actinomyces naeslundii; 5 μmol/ml) of the same molecule?
A: The value was 0.9820.

Q: And the “extent of growth: maximal OD630 over 24 hr divided by maximal OD of control (control = 1)” value (Actinomyces naeslundii; 10 μmol/ml)?
A: The value was 0.8708.

Q: And the “extent of growth: maximal OD630 over 24 hr divided by maximal OD of control (control = 1)” value (Actinomyces naeslundii; 20 μmol/ml)?
A: The value was 0.9716.

Q: And the “extent of growth: maximal OD630 over 24 hr divided by maximal OD of control (control = 1)” value (Actinomyces naeslundii; 25 μmol/ml)?
A: Its value is 0.8535.

Q: And the “extent of growth: maximal OD630 over 24 hr divided by maximal OD of control (control = 1)” value (Actinomyces viscosus; 5 μmol/ml)?
A: The value was 0.8017.

Q: And the “extent of growth: maximal OD630 over 24 hr divided by maximal OD of control (control = 1)” value (Actinomyces viscosus; 10 μmol/ml)?
A: The value was 0.8753.

Q: And the “extent of growth: maximal OD630 over 24 hr divided by maximal OD of control (control = 1)” value (Actinomyces viscosus; 20 μmol/ml)?
A: Its value is 0.9225.

Q: And the “extent of growth: maximal OD630 over 24 hr divided by maximal OD of control (control = 1)” value (Actinomyces viscosus; 25 μmol/ml)?
A: Its value is 0.8824.

Q: What about the “extent of growth: maximal OD630 over 24 hr divided by maximal OD of control (control = 1)” value (Streptococcus sobrinus; 5 μmol/ml) of the same molecule?
A: Its value is 0.9307.

Q: And the “extent of growth: maximal OD630 over 24 hr divided by maximal OD of control (control = 1)” value (Streptococcus sobrinus; 10 μmol/ml)?
A: The value was 0.7794.

Q: And the “extent of growth: maximal OD630 over 24 hr divided by maximal OD of control (control = 1)” value (Streptococcus sobrinus; 20 μmol/ml)?
A: Its value is 0.7737.

Q: And the “extent of growth: maximal OD630 over 24 hr divided by maximal OD of control (control = 1)” value (Streptococcus sobrinus; 25 μmol/ml)?
A: The value was 0.7857.

Q: And the “extent of growth: maximal OD630 over 24 hr divided by maximal OD of control (control = 1)” value (Streptococcus salivarius; 5 μmol/ml)?
A: Its value is 0.8639.

Q: What about the “extent of growth: maximal OD630 over 24 hr divided by maximal OD of control (control = 1)” value (Streptococcus salivarius; 10 μmol/ml) of the same molecule?
A: Its value is 0.8849.

Q: And the “extent of growth: maximal OD630 over 24 hr divided by maximal OD of control (control = 1)” value (Streptococcus salivarius; 20 μmol/ml)?
A: The value was 0.8460.

Q: What about the “extent of growth: maximal OD630 over 24 hr divided by maximal OD of control (control = 1)” value (Streptococcus salivarius; 25 μmol/ml) of the same molecule?
A: Its value is 0.9251.

Q: What about the “extent of growth: maximal OD630 over 24 hr divided by maximal OD of control (control = 1)” value (Prevotella intermedia; 5 μmol/ml) of the same molecule?
A: The value was 0.9530.

Q: And the “extent of growth: maximal OD630 over 24 hr divided by maximal OD of control (control = 1)” value (Prevotella intermedia; 10 μmol/ml)?
A: The value was 1.0261.

Q: What about the “extent of growth: maximal OD630 over 24 hr divided by maximal OD of control (control = 1)” value (Prevotella intermedia; 20 μmol/ml) of the same molecule?
A: Its value is 1.0229.

Q: What about the “extent of growth: maximal OD630 over 24 hr divided by maximal OD of control (control = 1)” value (Prevotella intermedia; 25 μmol/ml) of the same molecule?
A: Its value is 1.0494.

Q: What about the “extent of growth: maximal OD630 over 24 hr divided by maximal OD of control (control = 1)” value (Tannerella forsythia; 5 μmol/ml) of the same molecule?
A: The value was 0.9742.

Q: And the “extent of growth: maximal OD630 over 24 hr divided by maximal OD of control (control = 1)” value (Tannerella forsythia; 10 μmol/ml)?
A: Its value is 0.9715.

Q: And the “extent of growth: maximal OD630 over 24 hr divided by maximal OD of control (control = 1)” value (Tannerella forsythia; 20 μmol/ml)?
A: Its value is 0.9706.

Q: And the “extent of growth: maximal OD630 over 24 hr divided by maximal OD of control (control = 1)” value (Tannerella forsythia; 25 μmol/ml)?
A: The value was 0.9451.

Q: And the “extent of growth: maximal OD630 over 24 hr divided by maximal OD of control (control = 1)” value (Streptococcus gordonii; 5 μmol/ml)?
A: Its value is 0.9930.

Q: And the “extent of growth: maximal OD630 over 24 hr divided by maximal OD of control (control = 1)” value (Streptococcus gordonii; 10 μmol/ml)?
A: The value was 1.0254.

Q: What about the “extent of growth: maximal OD630 over 24 hr divided by maximal OD of control (control = 1)” value (Streptococcus gordonii; 20 μmol/ml) of the same molecule?
A: Its value is 0.9827.

Q: What about the “extent of growth: maximal OD630 over 24 hr divided by maximal OD of control (control = 1)” value (Streptococcus gordonii; 25 μmol/ml) of the same molecule?
A: The value was 1.0015.

Q: And the “extent of growth: maximal OD630 over 24 hr divided by maximal OD of control (control = 1)” value (Streptococcus mitis; 5 μmol/ml)?
A: The value was 1.3409.

Q: What about the “extent of growth: maximal OD630 over 24 hr divided by maximal OD of control (control = 1)” value (Streptococcus mitis; 10 μmol/ml) of the same molecule?
A: Its value is 1.3866.

Q: What about the “extent of growth: maximal OD630 over 24 hr divided by maximal OD of control (control = 1)” value (Streptococcus mitis; 20 μmol/ml) of the same molecule?
A: Its value is 1.7155.

Q: And the “extent of growth: maximal OD630 over 24 hr divided by maximal OD of control (control = 1)” value (Streptococcus mitis; 25 μmol/ml)?
A: Its value is 1.7409.

Q: What about the “extent of growth: maximal OD630 over 24 hr divided by maximal OD of control (control = 1)” value (Veillonella parvula; 5 μmol/ml) of the same molecule?
A: Its value is 1.0227.

Q: And the “extent of growth: maximal OD630 over 24 hr divided by maximal OD of control (control = 1)” value (Veillonella parvula; 10 μmol/ml)?
A: Its value is 1.0174.

Q: What about the “extent of growth: maximal OD630 over 24 hr divided by maximal OD of control (control = 1)” value (Veillonella parvula; 20 μmol/ml) of the same molecule?
A: The value was 1.0466.

Q: What about the “extent of growth: maximal OD630 over 24 hr divided by maximal OD of control (control = 1)” value (Veillonella parvula; 25 μmol/ml) of the same molecule?
A: The value was 1.0213.

Q: And the “extent of growth: maximal OD630 over 24 hr divided by maximal OD of control (control = 1)” value (Capnocytophaga sputigena; 5 μmol/ml)?
A: Its value is 0.9620.

Q: And the “extent of growth: maximal OD630 over 24 hr divided by maximal OD of control (control = 1)” value (Capnocytophaga sputigena; 10 μmol/ml)?
A: The value was 0.9635.

Q: And the “extent of growth: maximal OD630 over 24 hr divided by maximal OD of control (control = 1)” value (Capnocytophaga sputigena; 20 μmol/ml)?
A: The value was 0.9576.

Q: And the “extent of growth: maximal OD630 over 24 hr divided by maximal OD of control (control = 1)” value (Capnocytophaga sputigena; 25 μmol/ml)?
A: Its value is 0.9554.

Q: What about the “extent of growth: maximal OD630 over 24 hr divided by maximal OD of control (control = 1)” value ([1]; 5 μmol/ml) of the same molecule?
A: Its value is 1.0637.

Q: And the “extent of growth: maximal OD630 over 24 hr divided by maximal OD of control (control = 1)” value ([1]; 10 μmol/ml)?
A: Its value is 0.9102.

Q: And the “extent of growth: maximal OD630 over 24 hr divided by maximal OD of control (control = 1)” value ([1]; 20 μmol/ml)?
A: Its value is 0.9405.

Q: What about the “extent of growth: maximal OD630 over 24 hr divided by maximal OD of control (control = 1)” value ([1]; 25 μmol/ml) of the same molecule?
A: Its value is 0.8614.

Q: What about the “extent of growth: maximal OD630 over 24 hr divided by maximal OD of control (control = 1)” value (Porphyromonas gingivalis; 5 μmol/ml) of the same molecule?
A: Its value is 0.8020.

Q: What about the “extent of growth: maximal OD630 over 24 hr divided by maximal OD of control (control = 1)” value (Porphyromonas gingivalis; 10 μmol/ml) of the same molecule?
A: Its value is 0.8427.

Q: What about the “extent of growth: maximal OD630 over 24 hr divided by maximal OD of control (control = 1)” value (Porphyromonas gingivalis; 20 μmol/ml) of the same molecule?
A: Its value is 0.9137.

Q: And the “extent of growth: maximal OD630 over 24 hr divided by maximal OD of control (control = 1)” value (Porphyromonas gingivalis; 25 μmol/ml)?
A: Its value is 0.9419.

Q: What about the “extent of growth: maximal OD630 over 24 hr divided by maximal OD of control (control = 1)” value (S. sanguinis; 5 μmol/ml) of the same molecule?
A: Its value is 0.8350.

Q: And the “extent of growth: maximal OD630 over 24 hr divided by maximal OD of control (control = 1)” value (S. sanguinis; 10 μmol/ml)?
A: Its value is 0.8644.

Q: And the “extent of growth: maximal OD630 over 24 hr divided by maximal OD of control (control = 1)” value (S. sanguinis; 20 μmol/ml)?
A: The value was 0.8219.

Q: And the “extent of growth: maximal OD630 over 24 hr divided by maximal OD of control (control = 1)” value (S. sanguinis; 25 μmol/ml)?
A: Its value is 0.8122.
